Assay results reported in patent publication US7323447B2, “Hepatitis C virus inhibitors” (Bristol-Myers Squibb Company, priority 2005, dated 2008).

How the values were obtained:
[1] = tested on: HCV replicon (Renilla luciferase) in HUH-7 cells; test: HCV replicon luciferase reporter assay; format: cell-based, Hepatitis C virus (strain 1b); conditions: Huh-7, 96 h, 4 days
Source text: As a secondary assay, EC50 determinations from the replicon FRET assay were confirmed in a replicon luciferase reporter assay. Utilization of a replicon luciferase reporter assay was first described by Krieger et al (Krieger N, Lohmann V, and Bartenschlager R, J. Virol. 75(10):4614-4624 (2001)). The replicon construct described for our FRET assay was modified by inserting cDNA encoding a humanized form of the Renilla luciferase gene and a linker sequence fused directly to the 3′-end of the luciferase gene. This insert was introduced into the replicon construct using an Asc1 restriction site located in core, directly upstream of the neomycin marker gene. The adaptive mutation at position 1179 (serine to isoleucine) was also introduced (Blight K J, Kolykhalov, A A, Rice, C M, Science 290(5498): 1972-1974). A stable cell line constitutively expressing this HCV replicon construct was generated as described above. […] Following 4 days in a 37° C./5% CO2 incubator, cells were analyzed for Renilla Luciferase activity using the Promega Dual-Glo Luciferase Assay System. […] Plates were read on a Packard TopCount NXT using a luminescence program.
The percentage inhibition was calculated using the formula below: […]
The values were graphed and analyzed using XLfit to obtain the EC50 value.

human liver cathepsin B = biological target: T1, human liver cathepsin B (Homo sapiens, UniProt P07858); test: Specificity assay, cathepsin B; format: biochemical; conditions: read-out: Cathepsin B activity in the specificity assays (IC50)
T1 construct: purchased Sigma or EMDbiosciences; host or cells: human liver
Experimental: The specificities of compounds of the present disclosure were determined against a variety of serine proteases: human neutrophil elastase (HNE), porcine pancreatic elastase (PPE) and human pancreatic chymotrypsin and one cysteine protease: human liver cathepsin B. In all cases, a 96-well plate format protocol using colorimetric p-nitroaniline (pNA) substrate or fluorometric Amino-Methyl-Coumarin (AMC) substrate, specific for each enzyme was used as described previously (PCT Patent Application No. WO 00/09543) with some modifications. All enzymes were purchased from Sigma or EMDbiosciences while the substrates were from Bachem.
Each pNA assay included a 2 hours enzyme-inhibitor pre-incubation at room temperature followed by addition of substrate and hydrolysis to ˜15% conversion as measured on a Spectramax Pro microplate reader. The cathepsin B assay was initiated by adding substrate to a 10 min enzyme-inhibitor pre-incubation at room temperature, and the assay plate measured immediately using the Cytofluor Series 4000. Compound concentrations varied from 100 to 0.4 μM depending on their potency. […]
The percentage of inhibition was calculated using the formula: [1−((UVinh−UVblank)/(UVctl−UVblank))]×100 […]

C=C[C@@H]1C[C@]1(NC(=O)[C@@H]1C[C@@H](OC(=O)N2Cc3cccc(F)c3C2)CN1C(=O)[C@@H](OC(=O)NC(C)(C)C)C(C)(C)C)C(=O)NS(=O)(=O)C1CC1 [Example 56Compound 56]
EC50 [1]: 247 nM | IC50 (human liver cathepsin B): > 100000 nM
